Test results as given in patent US20160067246A1, “USE OF PHOSPHODIESTERASE 5A INHIBITORS FOR THE TREATMENT OF MUSCULAR DYSTROPHY” (CEDARS-SINAI MEDICAL CENTER, priority 2013, published 2016).

Test system: boys with Duchenne muscular dystrophy (DMD)
Experiment: Functional sympatholysis (LBNP, NIR spectroscopy, rest vs handgrip) with PDE5 inhibition in DMD
Assay type: in vivo, human
Conditions: DMD
Method: Forearm muscle oxygenation was measured with near-infrared (NIR) spectroscopy, as previously described.^4B Briefly, optodes were placed over the belly of the flexor digitorum profundus, the main muscle recruited during handgrip. The optodes were housed in a customized flexible rubber casing, ensuring a fixed and invariant position of the optodes relative to each other, and was secured to the skin with adhesive. The optodes were covered with an optically dense, black vinyl sheet, to minimize interference from external light or loss of NIR transmitted light. The forearm was wrapped with an elastic bandage to minimize movement of the optodes.
Before each experiment, absorption and scattering coefficients were calibrated against an external standard. After each experiment, a cuff was inflated on the upper arm to supra-systolic pressure of 200 mmHg to establish the total labile signal (TLS, the difference between the baseline and nadir in muscle tissue oxygenation). Changes in forearm tissue oxygenation were expressed as a percentage of TLS.
Handgrip exercise was performed with a dynamometer (Smedley Hand Dynamometer modified by Stoelting). To determine maximal voluntary contraction (MVC), each subject was asked to grip the dynamometer as hard as possible. […] Subjects performed intermittent isometric handgrip (20 handgrips per minute, 50% duty cycle) at 20% MVC for 7 minutes.
The subjects lower body was enclosed in a negative pressure chamber to the level of the iliac crest as previously described.^9B The pressure of the chamber was measured by a Statham transducer (Gould Inc.). Lower body negative pressure (LBNP) at −20 mmHg simulates mild orthostatic stress (that is, transition from the supine to the seated position). This technique mainly unloads the cardiopulmonary baroreceptors, producing highly reproducible reflex increases in sympathetic vasoconstrictor drive to the skeletal muscle vasculature without changing systemic blood pressure.^9B
The subjects' lower body was enclosed in a negative pressure chamber to the level of the iliac crest as previously described. The pressure in the chamber was measured by a Statham transducer (Gould Inc.). Lower body negative pressure (LBNP) at −20 to −30 mmHg simulates mild orthostatic stress caused by transition from the supine to the seated position. This technique mainly unloads the low-pressure cardiopulmonary baroreceptors, producing highly reproducible reflex increases in sympathetic vasoconstrictor drive to the skeletal muscle vasculature without changing systemic blood pressure. To measure exercise-induced attenuation of reflex vasoconstriction (i.e., functional sympatholysis), the LBNP was (i) applied at rest, and then (ii) superimposed on mild rhythmic handgrip at 20% MVC. Reflex vasoconstriction was measured as the LBNP-induced decrease in forearm muscle oxygenation by NIR spectroscopy. Using the pressure inside the LBNP chamber as a trigger, the Powerlab software was programed to mean the HbO2+MbO2 signal for 20 seconds before the onset of LBNP and for 20 seconds before the offset of LBNP; the difference between these mean values was taken as the LBNP-induced change in forearm muscle tissue oxygenation (20). Blood pressure, heart rate, and handgrip force were also recorded in response to 2 minutes of LBNP applied at rest and during the third to fifth minutes of the 7-minute exercise protocol.
Patients received 0.5 mg/kg of oral sildenafil or tadalafil on day 1, followed by 1.0 mg/kg of sildenafil or tadalafil on day 2. Patients then crossed over 2 weeks later for the opposite drug. Experiments were performed 1 hour (sildenafil) or 3 hours (tadalafil) after oral treatment to match the experiment with the peak blood level. Patients were queried about potential side-effects throughout the study visit. […]

[1] = 0.5 mg/kg oral, analysis of 10 of the 12 boys
[2] = 0.5 mg/kg oral, analysis using all 12 boys
[3] = 1.0 mg/kg oral, analysis of 10 of the 12 boys
[4] = 1.0 mg/kg oral, analysis using all 12 boys

## CN1CC(=O)N2[C@H](c3ccc4c(c3)OCO4)c3[nH]c4ccccc4c3C[C@@H]2C1=O [tadalafil]
[1]
  attenuation of the reflex decrease in muscle oxygenation during handgrip: 45±8%
  LBNP-induced ΔHbO2+MbO2 (% TLS) at rest: −20±2%
  LBNP-induced ΔHbO2+MbO2 (% TLS) during handgrip: −11±1%
0.5 mg/kg oral, analysis using all 12 boys (NIR in 10)
  attenuation of the reflex decrease in muscle oxygenation during handgrip: 57±16%
[2]
  LBNP-induced ΔHbO2+MbO2 (% TLS) at rest: −20±2%
  LBNP-induced ΔHbO2+MbO2 (% TLS) during handgrip: −9±3%
[3]
  attenuation of the reflex decrease in muscle oxygenation during handgrip: 63±5%
  LBNP-induced ΔHbO2+MbO2 (% TLS) at rest: −17±1%
  LBNP-induced ΔHbO2+MbO2 (% TLS) during handgrip: −7±1%
1.0 mg/kg oral, analysis using all 12 boys (NIR in 10)
  attenuation of the reflex decrease in muscle oxygenation during handgrip: 80±11%
[4]
  LBNP-induced ΔHbO2+MbO2 (% TLS) at rest: −16±2%
  LBNP-induced ΔHbO2+MbO2 (% TLS) during handgrip: −4±2%
